“Also recorded” adds a separate entry of the source. Where no end group is shown, it is not given here.
Assays:
HER2-ECD [1] = target: T1, HER2-ECD (Homo sapiens, UniProt P04626); experiment: HER2 competition ELISA (block binding of 1.1.FI-Zb to immobilized HER2-ECD); conditions: for HER2 binding activity of Superdex 75 fractions (active species): monomer and dimer fractions assayed in HER2 competition ELISA; for IC50: read-out: IC50, block binding of 1.1.FI-Zb to immobilized HER2, HER2 competition ELISA, 40 nM biotinylated 1.1.FI-Z
T1 construct: immobilized extracellular domain of Erb2 (HER2-ECD, Hudziak et al. (1991) J. Biol. Chem. 266:24109-15)
Experimental: By way of exemplification and not limitation an ELISA assay can be conducted wherein microtiter plates (for example, Nunc Maxisorp™ 96-well plates, Inter Med, Denmark) are coated with HER2-ECD in 50 mM ammonium bicarbonate, pH 9.3, using 5 μg/ml, overnight at 4° C. Wells can be blocked using PBS containing 1% BSA (PBS-BSA) for 1 hr at 25° C. […] Following an incubation of about 1 hour the plate is washed with PBS-TWEEN and Strepavidin-HRP is added for about 30 min. Plates are washed again with PBS-TWEEN and the bound HRP assayed using ABTS/H2O2 substrate. The change in absorbance at 405 nm is monitored. Decrease in absorbance is plotted vs. sample concentration and an IC50 for each candidate peptide ligand is determined.
Following a 1 h incubation the plate was washed with PBS-Tween and Strepavidin/HRP conjugate (Streptavidin-POD, Roche Molecular Biochemicals) was added for 30 min. Plates were washed again with PBS-Tween and the bound HRP was assayed using ABTS/H2O2 substrate (Kirkegaard & Perry Laboratories) and the absorbance at 405 nm was monitored. […] Fractions from the HPLC were tested for their ability to compete in the HER2 competition ELISA.

BSA = BSA (Bos taurus, UniProt P02769); experiment: Phage binding assay, immobilized BSA
BSA, sequence (P02769 25-607): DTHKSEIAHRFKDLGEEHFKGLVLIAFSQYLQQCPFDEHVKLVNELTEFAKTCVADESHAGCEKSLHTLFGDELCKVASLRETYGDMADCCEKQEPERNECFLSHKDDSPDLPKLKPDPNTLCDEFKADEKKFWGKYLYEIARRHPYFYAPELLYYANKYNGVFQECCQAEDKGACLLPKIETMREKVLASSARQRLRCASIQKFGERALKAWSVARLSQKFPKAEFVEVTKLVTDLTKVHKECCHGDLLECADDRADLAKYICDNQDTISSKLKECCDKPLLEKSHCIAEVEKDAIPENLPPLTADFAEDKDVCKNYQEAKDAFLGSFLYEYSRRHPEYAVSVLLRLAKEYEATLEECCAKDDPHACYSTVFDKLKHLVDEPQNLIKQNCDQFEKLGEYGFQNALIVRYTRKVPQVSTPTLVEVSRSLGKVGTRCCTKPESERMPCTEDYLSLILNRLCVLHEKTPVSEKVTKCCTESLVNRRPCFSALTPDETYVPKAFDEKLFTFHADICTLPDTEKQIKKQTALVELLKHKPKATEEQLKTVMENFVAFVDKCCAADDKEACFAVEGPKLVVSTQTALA
Experimental: (§1) • Selection Conditions—HER2-ECD was immobilized directly to maxisorp plates in 50 mM ammonium bicarbonate, pH 9.3, using 5 μg/ml, overnight at 4° C. Wells were blocked using PBS containing 1% BSA (PBS-BSA) for 1 hr at 25° C. Phage from each pool were incubated in wells containing HER2-ECD in PBS-BSA for 3 hr at 25° C.; generally about 5×10^10 phage were added at the beginning of each round. Unbound phage were removed by repetitive washing with PBS containing 0.05% Tween 20 (PBS-Tween); remaining phage were eluted with 500 mM KCl, 10 mM HCl, pH 2. The eluted phage were then amplified in XL1-Blue cells with VCSM13 helper phage (Stratagene) overnight at 37° C. IPTG (10 μM) was added only to the initial phage libraries and during amplification following round 1; later rounds relied on basal expression of the tac promoter for production of peptide-pVIII expression. Enrichment was monitored by titering the number of phage which bound to a target coated well compare to a well coated with BSA. • HER2 Phage Binding Assay—Inhibition of binding of phage displaying a single copy of peptide 1.1FI (Table 1) on their surface to the immobilized extracellular domain of Erb2 (HER2-ECD, Hudziak et al. (1991) J. Biol. Chem. 266:24109-15) was monitored using a phage ELISA. HER2-ECD was immobilized directly to Maxisorp plates (Nunc) in 50 mM ammonium bicarbonate, pH 9.3, using 5 μg/ml, overnight at 4° C. Wells were blocked using PBS containing 1% BSA (PBS-BSA) for 1 h at 25° C. Dilutions of 1.1FI-Fc in PBS-BSA were tested for their ability to block the binding of 1.1FI displaying phage to the immobilized HER2-ECD. The microtiter plate was washed with PBS containing 0.05% Tween20 (PBS-Tween) and the phage bound to HER2-ECD were detected with an anti-gVIII/HRP monoclonal antibody conjugate (Amersham Pharmacia Biotech). The amount of HRP bound Was measured using ABTS/H2O2 substrate and monitoring the change at 405 nm. Results • Selection of Polyvalent Peptide-Phage That Bind to HER2-ECD—Polyvalent peptide libraries were sorted in 7 pools (Table 1) against immobilized HER2-ECD. […]

HER4 = HER4 (Homo sapiens, UniProt Q15303); experiment: Phage binding assay, HER4
HER4, sequence (Q15303 26-1308, species assumed): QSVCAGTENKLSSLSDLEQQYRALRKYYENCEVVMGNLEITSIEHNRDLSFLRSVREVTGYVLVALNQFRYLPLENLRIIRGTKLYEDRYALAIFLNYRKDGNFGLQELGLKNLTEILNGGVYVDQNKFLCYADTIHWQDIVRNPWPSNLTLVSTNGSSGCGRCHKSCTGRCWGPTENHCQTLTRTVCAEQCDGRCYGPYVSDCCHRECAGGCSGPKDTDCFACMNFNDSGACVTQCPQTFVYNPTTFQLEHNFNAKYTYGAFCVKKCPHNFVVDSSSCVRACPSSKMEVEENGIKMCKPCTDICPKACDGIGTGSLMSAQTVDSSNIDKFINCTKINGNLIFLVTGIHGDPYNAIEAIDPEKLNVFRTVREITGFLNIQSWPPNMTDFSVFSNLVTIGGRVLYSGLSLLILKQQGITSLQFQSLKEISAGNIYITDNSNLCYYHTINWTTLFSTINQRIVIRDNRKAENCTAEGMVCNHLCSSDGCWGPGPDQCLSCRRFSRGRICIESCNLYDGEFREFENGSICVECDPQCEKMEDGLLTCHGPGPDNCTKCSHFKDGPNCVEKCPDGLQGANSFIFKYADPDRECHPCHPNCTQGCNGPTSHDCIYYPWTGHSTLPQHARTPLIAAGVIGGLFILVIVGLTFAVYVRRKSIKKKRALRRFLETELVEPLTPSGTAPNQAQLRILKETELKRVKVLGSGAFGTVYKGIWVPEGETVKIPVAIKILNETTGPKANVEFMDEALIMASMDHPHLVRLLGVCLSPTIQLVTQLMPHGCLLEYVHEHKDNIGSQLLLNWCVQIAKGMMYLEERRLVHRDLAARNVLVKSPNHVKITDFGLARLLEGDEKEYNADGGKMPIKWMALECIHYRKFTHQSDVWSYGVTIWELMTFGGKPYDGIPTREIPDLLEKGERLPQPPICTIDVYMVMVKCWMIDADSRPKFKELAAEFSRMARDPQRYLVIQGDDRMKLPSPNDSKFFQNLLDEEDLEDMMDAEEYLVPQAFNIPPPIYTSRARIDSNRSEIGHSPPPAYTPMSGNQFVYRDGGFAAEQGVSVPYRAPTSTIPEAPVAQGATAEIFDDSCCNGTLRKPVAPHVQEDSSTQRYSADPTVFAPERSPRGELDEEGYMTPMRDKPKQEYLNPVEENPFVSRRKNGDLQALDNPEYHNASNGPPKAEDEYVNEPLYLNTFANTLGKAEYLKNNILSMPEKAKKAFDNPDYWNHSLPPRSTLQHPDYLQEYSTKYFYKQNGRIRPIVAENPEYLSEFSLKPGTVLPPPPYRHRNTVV

HER2-ECD [2] = target: T1, HER2-ECD; experiment: Phage binding assay, immobilized HER2-ECD
Experimental: as §1

HER3 = HER3 (Homo sapiens, UniProt P21860); experiment: Phage binding assay, HER3
HER3, sequence (P21860 20-1342, species assumed): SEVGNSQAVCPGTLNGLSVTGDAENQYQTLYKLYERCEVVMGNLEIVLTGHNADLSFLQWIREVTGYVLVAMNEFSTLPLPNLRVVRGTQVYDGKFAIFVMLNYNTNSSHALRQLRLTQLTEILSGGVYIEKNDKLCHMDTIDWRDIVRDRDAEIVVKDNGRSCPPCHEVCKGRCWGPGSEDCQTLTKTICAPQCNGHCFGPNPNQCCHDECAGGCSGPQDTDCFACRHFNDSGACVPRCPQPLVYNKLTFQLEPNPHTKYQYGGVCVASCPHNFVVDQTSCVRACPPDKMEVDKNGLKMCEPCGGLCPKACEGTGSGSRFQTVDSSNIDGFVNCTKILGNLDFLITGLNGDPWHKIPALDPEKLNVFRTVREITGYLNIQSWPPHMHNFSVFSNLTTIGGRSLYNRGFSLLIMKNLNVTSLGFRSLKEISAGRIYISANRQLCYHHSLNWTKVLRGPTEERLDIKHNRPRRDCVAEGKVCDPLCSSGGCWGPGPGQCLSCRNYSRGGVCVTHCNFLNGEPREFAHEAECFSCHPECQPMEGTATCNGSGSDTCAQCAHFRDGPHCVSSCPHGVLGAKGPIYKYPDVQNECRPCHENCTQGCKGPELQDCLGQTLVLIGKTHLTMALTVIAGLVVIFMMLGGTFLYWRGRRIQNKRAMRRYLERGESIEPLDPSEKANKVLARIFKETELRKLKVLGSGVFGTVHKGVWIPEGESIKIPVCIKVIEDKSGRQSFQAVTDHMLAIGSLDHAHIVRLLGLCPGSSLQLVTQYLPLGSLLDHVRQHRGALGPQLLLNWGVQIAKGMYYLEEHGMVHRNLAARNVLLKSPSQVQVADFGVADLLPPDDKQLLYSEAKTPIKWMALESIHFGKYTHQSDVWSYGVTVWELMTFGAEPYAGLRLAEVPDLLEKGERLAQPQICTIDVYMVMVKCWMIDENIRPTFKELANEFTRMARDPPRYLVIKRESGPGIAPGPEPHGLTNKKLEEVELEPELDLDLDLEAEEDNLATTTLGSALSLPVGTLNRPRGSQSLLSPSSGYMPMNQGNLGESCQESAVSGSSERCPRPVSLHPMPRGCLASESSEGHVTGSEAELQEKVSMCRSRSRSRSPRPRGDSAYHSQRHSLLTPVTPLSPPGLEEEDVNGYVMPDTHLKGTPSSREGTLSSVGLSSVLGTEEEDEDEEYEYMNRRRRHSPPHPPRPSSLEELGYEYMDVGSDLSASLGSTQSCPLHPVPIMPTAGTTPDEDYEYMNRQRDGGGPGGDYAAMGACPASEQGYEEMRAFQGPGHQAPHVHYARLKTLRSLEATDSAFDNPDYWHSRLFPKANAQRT

immobilized HER2 = target: T2, immobilized HER2 (Homo sapiens, UniProt P04626); experiment: Binding of Class 1 and Class 7 phage clones to immobilized HER2 in the presence of peptide
T2 construct: immobilized extracellular domain of Erb2 (HER2-ECD, Hudziak et al. (1991) J. Biol. Chem. 266:24109-15)

HER2 expressed on cells = target: T3, HER2 expressed on cells (Homo sapiens, UniProt P04626); experiment: Cell binding by FACS analysis (BT 474, MDA 361, BaF3); format: cell-based; conditions: BT 474 (3×10^6 receptors/cell), MDA 361 (4×10^5 receptors/cell), BaF3 (no HER2); 0, 0.5 or 5 μM
T3 construct: Cells expressing HER2 (BT 474 [3+], MDA 361 [2+], and BaF3 [0+]); endogenous in cells; host or cells: BT 474, MDA 361 (BaF3 as control line without HER2)

| Substance | Phage binding to immobilized BSA (BSA) | Phage binding to HER4 (HER4) | Phage binding to immobilized HER2-ECD (HER2-ECD [2]) | Phage binding to HER3 (HER3) | also measured |
| --- | --- | --- | --- | --- | --- |
| 1.1.FI-Z: peptide 1.1.FI expressed and secreted from E. coli as a fusion to the Z domain of protein A (QVYESWGCIGPGCACLQACL) |  |  |  |  | HER2 binding activity of Superdex 75 fractions (active species) (HER2-ECD [1]): coincided with the dimer fractions rather than the monomer fractions; also recorded: coinciding with dimer fractions; IC50 (HER2-ECD [1]): 50 nM |
| (FI)2-Z: 1.1.FI sequence repeated twice and fused to the Z domain of protein A, single chain dimer (QVYESWGCIGPGCACLQACLGGGSGGQVYESWGCIGPGCACLQACL; cysteine pairing not given here; also: fused to the Z domain of protein A (end not given here)) |  |  |  |  | HER2 binding activity of Superdex 75 fractions (active species) (HER2-ECD [1]): the active species was now identified as monomer; HER2 binding activity of Superdex 75 fractions (active species) (HER2-ECD [1]; listed as (1.1FI)2-Z): coinciding with monomer fractions |
| R S C A D V A S R C W E H C I T [5.1] | not | not | bind | not |  |
| YEVEAWDCMGPGCANLFEAH [1.1] | not | not | bind | not |  |
| YSFEGWGCIGPGCAYLFEGH (cysteine pairing not given here) [HER201] |  |  |  |  | Blocking of binding of Class 1 and Class 7 phage to immobilized HER2 (immobilized HER2): block the binding of both Class 1 and Class 7 phage |
| 1.1.FI-Zb: biotinylated 1.1.FI-Z preparation (QVYESWGCIGPGCACLQACL; cysteine pairing not given here; also: biotinylated (NHS-LC-biotin), fused to Z domain (not in chain)) |  |  |  |  | Binding to cells by FACS (HER2 expressed on cells): bind cells proportional to the number of HER2 receptors expressed on the cell |
| active fraction: HPLC fraction of trypsin-digested 1.1.FI-Z; mass corresponding to HER212 sequence, found to contain dimer (QVYESWGCIGPGCACLQACL; cysteine pairing not given here; also: fraction found to contain dimer) |  |  |  |  | IC50 (HER2-ECD [1]): 3 nM |
| CSWVLVQCGGEWWHCCGLGCGLVVNAC (cysteine pairing not given here) [7.1] | not | not | bind | not |  |
